PubChem BioAssay AID1918930 (Molecular Pharmacology Branch, DTP, NCI, 2023)

Tested on: 233499-124-R-J3-PDC complex spheroid viability, % test/control
Test: Anticancer human tumor 233499-124-R-J3-PDC patient-derived colon adenocarcinoma cell line growth inhibition
Settings: for IC50: curve of first compound; for viability, T/C: stronger effect = lower value
Procedure, shortened: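 Complex spheroids of tumor cells with HUVEC and human MSCs, exposed to iadademstat combined with other agents. Each agent tested in half-log steps from near clinical Cmax (else 10 microM top), DMSO ≤0.25%.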

[1] = second compound 0.1 µM, first compound 0.000316 µM
[2] = second compound 0.1 µM, first compound 0.001 µM
[3] = second compound 0.1 µM, first compound 0.00316 µM
[4] = second compound 0.1 µM, first compound 0.01 µM
[5] = second compound 0.1 µM, first compound 0.0316 µM
[6] = second compound 0.1 µM, first compound 0.1 µM
[7] = second compound 0.316 µM, first compound 0.000316 µM
[8] = second compound 0.316 µM, first compound 0.001 µM
[9] = second compound 0.316 µM, first compound 0.00316 µM
[10] = second compound 0.316 µM, first compound 0.01 µM
[11] = second compound 0.316 µM, first compound 0.0316 µM
[12] = second compound 0.316 µM, first compound 0.1 µM
[13] = second compound 1 µM, first compound 0.000316 µM
[14] = second compound 1 µM, first compound 0.001 µM
[15] = second compound 1 µM, first compound 0.00316 µM
[16] = second compound 1 µM, first compound 0.01 µM
[17] = second compound 1 µM, first compound 0.0316 µM
[18] = second compound 1 µM, first compound 0.1 µM
[19] = second compound 3.16 µM, first compound 0.000316 µM
[20] = second compound 3.16 µM, first compound 0.001 µM
[21] = second compound 3.16 µM, first compound 0.00316 µM
[22] = second compound 3.16 µM, first compound 0.01 µM
[23] = second compound 3.16 µM, first compound 0.0316 µM
[24] = second compound 3.16 µM, first compound 0.1 µM
[25] = second compound 10 µM, first compound 0.000316 µM
[26] = second compound 10 µM, first compound 0.001 µM
[27] = second compound 10 µM, first compound 0.00316 µM
[28] = second compound 10 µM, first compound 0.01 µM
[29] = second compound 10 µM, first compound 0.0316 µM
[30] = second compound 10 µM, first compound 0.1 µM
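Further: spheroids exposed to agents for one week before readout.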

Structure (SMILES)	IC50 (second compound 0.1 µM) [nM]	IC50 (second compound 0.316 µM) [nM]	IC50 (second compound 1 µM) [nM]	IC50 (second compound 3.16 µM) [nM]	IC50 (second compound 10 µM) [nM]	viability, T/C [3] [%]	viability, T/C [4] [%]	viability, T/C [5] [%]	viability, T/C [6] [%]	viability, T/C [9] [%]	viability, T/C [10] [%]	viability, T/C [11] [%]	viability, T/C [12] [%]	viability, T/C [15] [%]	viability, T/C [16] [%]	viability, T/C [17] [%]	viability, T/C [18] [%]	viability, T/C [21] [%]	viability, T/C [22] [%]	viability, T/C [23] [%]	also measured
CC(C)CC(NC(=O)C(Cc1ccccc1)NC(=O)c1cnccn1)B(O)O (stereo not given) + NC1CC1c1ccc(-c2cccc(O)c2)cc1	0.491	0.445	0.493	0.528	0.389	0.06	0.06	0.07	0.23	0.06	0.23	0.05	0.21	0.05	0.04	0.06	0.2	0.08	0.06	0.07	viability, T/C [1]: 80.7%; viability, T/C [2]: 0.42%; viability, T/C [7]: 71%; viability, T/C [8]: 0.32%; viability, T/C [13]: 80.7%; viability, T/C [14]: 0.91%; viability, T/C [19]: 89.8%; viability, T/C [20]: 0.32%; viability, T/C [24]: 0.23%; viability, T/C [25]: 60.1%; viability, T/C [26]: 3.72%; viability, T/C [27]: 0.8%; viability, T/C [28]: 0.22%; viability, T/C [29]: 0.42%; viability, T/C [30]: 0.34%
CC(C)CC(NC(=O)CNC(=O)c1cc(Cl)ccc1Cl)B1OC(=O)CC(CC(=O)O)(C(=O)O)O1 (stereo not given) + NC1CC1c1ccc(-c2cccc(O)c2)cc1	4.93	5.3	4.23	4.65	3.64	80.2	1.61	0.06	0.15	88.4	2.74	0.07	0.16	66.3	1.28	0.13	0.13	73.8	2.88	0.06	viability, T/C [1]: 114%; viability, T/C [2]: 105%; viability, T/C [7]: 113%; viability, T/C [8]: 109%; viability, T/C [13]: 104%; viability, T/C [14]: 95.1%; viability, T/C [19]: 89.6%; viability, T/C [20]: 88.1%; viability, T/C [24]: 0.12%; viability, T/C [25]: 70.4%; viability, T/C [26]: 88.1%; viability, T/C [27]: 56.9%; viability, T/C [28]: 0.89%; viability, T/C [29]: 0.15%; viability, T/C [30]: 0.18%
COc1cc(Nc2ncc3c(n2)-c2ccc(Cl)cc2C(c2c(F)cccc2OC)=NC3)ccc1C(=O)O + NC1CC1c1ccc(-c2cccc(O)c2)cc1	> 1000	> 1000	< 3.16	< 3.16	< 3.16	44.5	54.3	66.4	72.5	49.5	59.6	64.1	62.1	44.2	50.7	53.2	54.3	39.8	52.1	70.5	viability, T/C (second compound 0.1 µM, first compound 0.316 µM): 62%; viability, T/C (second compound 0.1 µM, first compound 1 µM): 102%; viability, T/C (second compound 0.316 µM, first compound 0.316 µM): 62.8%; viability, T/C (second compound 0.316 µM, first compound 1 µM): 98.4%; viability, T/C (second compound 1 µM, first compound 0.316 µM): 60.6%; viability, T/C (second compound 1 µM, first compound 1 µM): 82.9%; viability, T/C [24]: 57.2%; viability, T/C (second compound 3.16 µM, first compound 0.316 µM): 62.5%; viability, T/C (second compound 3.16 µM, first compound 1 µM): 88.9%; viability, T/C [27]: 33%; viability, T/C [28]: 48.3%; viability, T/C [29]: 56.2%; viability, T/C [30]: 49%; viability, T/C (second compound 10 µM, first compound 0.316 µM): 52.1%; viability, T/C (second compound 10 µM, first compound 1 µM): 86.1%
